Experiments:
[1] = system: Trypanosoma cruzi; assay: (§1) GSK_TCAKS: pIC50 H2C9 Imaging: H9c2 Host Cardiomyocytes. […] Cells were then washed once with PBS before infection. T. cruzi trypomastigotes, collected at days 5 to 8 after infection from LLC-MK2 parasite infected cultures, were allowed to swim out for 4h at 37C from a centrifuged pellet (2,500 rpm/10 min/room temperature). Trypomastigotes were then collected and counted in a CASY Cell Counter. Trypomastigotes, in supplemented DMEM, were added to H9c2 cultures in a multiplicity of infection of 1 and incubated for 18 h. Cells were washed once with PBS before incubation of the infected H9c2 monolayer with trypsin (Life-Technologies) to detach cells from the flask. Cells were counted in a CASY Cell Counter using a 150 um capillary and their density set at 5 * 10^4 cells per mL in supplemented assay DMEM. Infected H9c2 were dispensed into 384-well poly-lysine coated assay plates at 50uL per well using a Multidrop Combi dispenser. After seeding them, the plates were incubated at 37C, 5% CO2 for 72h. Cultures were then fixed and stained by addition of 50 uL of a solution containing 8% formaldehyde and 4 uM DRAQ5 DNA dye (BioStatus, UK) per well. […] Five images were collected per well for reliable statistical analysis. Automated image analysis was performed with a script developed on Acapella High Content Imaging and Analysis Software (PerkinElmer). Output: Number of H9c2 Host Cardiomyocytes nuclei to determine drug-related cytotoxicity.; format: functional, organism-based, Rattus norvegicus; conditions: H9c2, 4 h
[2] = target: Sterol 14-alpha demethylase (Trypanosoma cruzi (strain CL Brener), UniProt Q7Z1V1); assay: GSK_TCAKS: pIC50 CYP51 from Trypanosoma cruzi.; format: functional
[3] = system: NIH3T3; assay: GSK_TCAKS: pIC50 NIH 3T3 cell line viability assay using luminiscence. Tissue culture surface treated assay plates (1536-well) were used. […] The 100% cells survival control was determined exposing the host-cells to a 0.5% DMSO concentration, whereas the 100% toxicity control was achieved by seeding the cells in presence of Amphotericin B at 50uM. Plates were incubated for four days at 37C, 5% CO2. The assay readout was developed by addition of 5uL of CellTiter-Glo Reagent following the manufacturer's instructions. Luminiscence was measured using a ViewLux.; format: functional, cell-based; conditions: Mus musculus, NIH3T3, 96 h
[4] = system: Trypanosoma cruzi; assay: as §1, with “Trypanosoma cruzi” for “H2C9”, “Infected Cells.” for “H9c2 Host Cardiomyocytes.”, “percentage” for “Number”, “infected cells per well as a second infection marker.” for “H9c2 Host Cardiomyocytes nuclei to determine drug-related cytotoxicity.”; format: functional, organism-based, Rattus norvegicus; conditions: H9c2, 4 h
[5] = system: Trypanosoma brucei brucei; assay: GSK_TCAKS: pIC50 Trypanosoma brucei viability assay using fluorescence intensity. Assay plates (1536-well) were prepared by dispensing 25nL of compound solution per well using an Echo acoustic dispenser (Labcyte).; format: functional, organism-based; conditions: Lister 427, 2 h
[6] = system: Trypanosoma brucei brucei; assay: GSK_TCAKS: pIC50 Trypanosoma brucei viability assay using luminiscence. Assay plates (1536-well) were prepared. T. brucei cultures were harvested and counted in a CASY cell counter. A parasite suspension was prepared at a final concentration of 5 * 10^4 cells/mL in complete HMI9 medium and 6uL was dispensed to all wells containing compounds using a Multidrop Combi dispenser. 6uL of HMI9 media with 0.4% DMSO were dispensed to control columns. Plates were incubated for 24 h at 37C, 5% CO2 then tempered for 10 min at room temperature. ATP content was quantified by adding 4 uL of CellTiter-Glo Reagent (Promega) according to the manufacturer's instructions. Luminescence was measured using a ViewLux.; format: functional, organism-based; conditions: Lister 427, CASY
[7] = system: Trypanosoma cruzi; assay: as §1, with “Trypanosoma cruzi” for “H2C9”, “Amastigotes/Cell.” for “H9c2 Host Cardiomyocytes.”, “number” for “Number”, “amastigotes per cell as infection level measurement.” for “H9c2 Host Cardiomyocytes nuclei to determine drug-related cytotoxicity.”; format: functional, organism-based, Rattus norvegicus; conditions: H9c2, 4 h
[8] = system: Leishmania donovani; assay: (§2) GSK_TCAKS: pIC50 Leishmania donovani Imaging: Amastigotes/Macrophages. Assay plates (384-well) were prepared by adding 250nL of compound to each well. For single shot assay, the final compound concentration was 5 uM. […] Automated image analysis was performed with a script developed on Acapella High Content Imaging and Analysis Software (PerkinElmer). Output: Average number of amastigotes per macrophage cell were reported for each well.; format: functional, organism-based, Homo sapiens; conditions: THP-1
[9] = system: Leishmania donovani; assay: as §2, with “Infected Macrophages.” for “Amastigotes/Macrophages.”, “Percent” for “Average number”, “infected” for “amastigotes per”, “cells” for “cell”; format: functional, organism-based, Homo sapiens; conditions: THP-1
[10] = system: Leishmania donovani; assay: GSK_TCAKS: pIC50 Leishmania donovani viability assay using fluorescence intensity. Assay plates (1536-well) were prepared by adding 30nL per well of compound. For single shot assay, the final compound concentration was 5uM. […] Briefly, eGFP LdBOB axenic amastigotes were harvested, fixed and counted in a CASY cell counter (Roche-Applied Science). A final concentration of 1.5 * 10^5 cells per well were prepared in amastigote media containing 500 U/mL penicillin/streptomycin (Invitrogen) and 6uL was dispensed to each experimental well using a Multidrop Combi dispenser (Thermo Scientific). 6uL of assay media was dispensed to control columns used as reference for 100% compound response. Following incubation for 72 h at 37C, 5% CO2, 2 uL of resazurin was added to each well at a final concentration of 0.5 mM in phosphate buffered saline (PBS) with IGEPAL (Sigma-Aldrich), 0.05% (v/v).; format: functional, organism-based
[11] = system: Leishmania donovani; assay: as §2, with “THP-1 Host Macrophages.” for “Amastigotes/Macrophages.”, “THP-1” for “Average number of amastigotes per macrophage”, “cell count” for “cell”; format: functional, organism-based, Homo sapiens
[12] = GSK_TCAKS: pIC50 HepG2 human cell line viability assay using luminiscence. […] Seeding density was checked to ensure that new mono-layers were not more than 50% confluent at the time of harvesting. Cell suspension was added to 500 mL of the same medium at a final density of 1.2 * 10^5 cells/mL. This cell suspension was dispensed (25 uL, 3000 cells per well) into 384-well clear-bottom plates using a Multidrop Combi dispenser. Prior to addition of the cell suspension, the screening compounds (250 nL) were pre-dispensed into the plates with an Echo liquid handler. Plates were incubated for 48 h at 37C, 5% CO2. After incubation, plates equilibrated at room temperature for 30 min before proceeding to develop the luminescent signal. The signal developer, CellTiter-Glo Reagent, was allowed to equilibrate at room temperature for 30 min and added to the plates (25uL per well) using a Multidrop Combi dispenser. Plates were left for 10 min at room temperature for stabilization and then read using a ViewLux.; format: toxicity, cell-based
[13] = system: Trypanosoma cruzi; assay: GSK_TCAKS: pIC50 Trypanosoma cruzi viability assay using beta-GAL activity. This assay was run at single shot at 5uM compound concentration per well. The biological reagents consisted of NIH-3T3 host cells and trypomastigotes parasitic cells; both cell types were set to a 3.3 * 10^5 cells/mL dilution in assay DMEM by means of a CASY cell counter device using a 60um capillary. 6 uL of the mixture were dispensed per well (about 1 * 10^3 host-cells and 1 * 10^3 parasites) with a Multidrop Combi dispenser. […] In all wells, the percentage of DMSO never exceeded 0.5%. Plates incubated for four days at 37C, 5% CO2. The substrate used for the assay fluorescence intensity (FLINT) readout was resorufin-beta-D-galactopiranoside (Sigma-Aldrich) at 5uM per well. It was diluted in PBS supplemented with the soft detergent Igepal (Fluka).; format: functional, organism-based, Mus musculus; conditions: Tulahuen, NIH3T3

Chain of Sterol 14-alpha demethylase (Q7Z1V1 whole entry): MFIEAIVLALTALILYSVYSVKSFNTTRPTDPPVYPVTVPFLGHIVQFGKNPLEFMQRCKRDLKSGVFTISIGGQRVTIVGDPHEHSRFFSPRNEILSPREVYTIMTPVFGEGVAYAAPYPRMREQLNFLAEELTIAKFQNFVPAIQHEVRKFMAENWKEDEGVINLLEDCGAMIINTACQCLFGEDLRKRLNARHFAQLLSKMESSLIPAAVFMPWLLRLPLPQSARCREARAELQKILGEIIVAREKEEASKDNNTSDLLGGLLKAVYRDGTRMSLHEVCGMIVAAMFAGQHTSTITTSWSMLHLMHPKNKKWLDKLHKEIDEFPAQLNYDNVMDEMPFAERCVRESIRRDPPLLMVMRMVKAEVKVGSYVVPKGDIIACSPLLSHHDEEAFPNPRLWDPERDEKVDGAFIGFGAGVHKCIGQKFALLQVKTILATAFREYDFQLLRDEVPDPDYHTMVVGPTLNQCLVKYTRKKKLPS

SMILES | IC50 [1] | IC50 [2] | IC50 [3] | IC50 [4] | IC50 [5] | IC50 [6] | IC50 [7] | IC50 [8] | IC50 [9] | IC50 [10] | IC50 [11] | IC50 at 48 h [12] | IC50 [13]
CC(=Cc1ccccc1)CN1CCC(=O)N(Cc2cccnc2)CC1 | > 50.1 µM | 0.1 µM | > 50.1 µM | 0.501 µM | > 39.8 µM | > 39.8 µM | 0.501 µM | 31.6 µM | > 50.1 µM | > 50.1 µM | 39.8 µM | > 100 µM | 0.251 µM
CN1CCN(c2nc(-c3ccc(Cl)cc3)c3c(N)n(C)nc3n2)CC1 | 25.1 µM | > 100 µM | 25.1 µM | 1 µM | 12.6 µM | 31.6 µM | 0.794 µM | 31.6 µM | 39.8 µM | > 50.1 µM | 39.8 µM | 79.4 µM | 2 µM
COc1ccc(C)cc1-c1csc(NC(=O)C(C)n2ccnc2)n1 (stereo not drawn) | > 50.1 µM | 0.0398 µM | 50.1 µM | 0.1 µM | 25.1 µM | > 39.8 µM | 0.1 µM | > 50.1 µM | > 50.1 µM | 3.16 µM | > 50.1 µM | > 100 µM | 0.0708 µM
CC(C)Oc1cccc(N2CCC(C(=O)N3CCCN(C(C)C)CC3)CC2)c1 | > 50.1 µM | > 100 µM | 31.6 µM | 0.631 µM | > 39.8 µM | > 39.8 µM | 0.251 µM | > 50.1 µM | > 50.1 µM | > 50.1 µM | > 50.1 µM | > 100 µM | 1.26 µM
CCN(Cc1ccncc1)Cc1ccc(NC(=O)c2cc(-c3ccc(F)cc3)n[nH]2)cc1 | > 50.1 µM | 0.0794 µM | 10 µM | 0.251 µM | > 39.8 µM | > 39.8 µM | 0.251 µM | 2.51 µM | > 50.1 µM | 15.8 µM | 5.01 µM | > 100 µM | 0.398 µM
COc1cccc(CCNC(=O)C(c2cn[nH]c2)N2CCN(c3ccc(Cl)cc3)CC2)c1 (stereo not drawn) | 39.8 µM | 0.0631 µM | 31.6 µM | 0.02 µM | 20 µM | 31.6 µM | 0.0158 µM | 10 µM | 20 µM | 12.6 µM | 25.1 µM | 50.1 µM | 0.02 µM
COc1ccc2nc(N(Cc3cccnc3)C(=O)C3CCC3)sc2c1 | > 50.1 µM | 0.0631 µM | 50.1 µM | 0.126 µM | 20 µM | 39.8 µM | 0.1 µM | 50.1 µM | > 50.1 µM | 12.6 µM | > 50.1 µM | > 100 µM | 0.126 µM
CC(C)c1cc(C(=O)N2CCCC(c3cc4ncccc4[nH]3)C2)on1 (stereo not drawn) | > 50.1 µM | 50.1 µM | 20 µM | 3.16 µM | > 39.8 µM | > 39.8 µM | 1 µM | > 50.1 µM | > 50.1 µM | > 50.1 µM | > 50.1 µM | > 100 µM | 2 µM
O=C(NCc1nnc2n1CCCCC2)c1ccc(-c2ccc(F)cc2)o1 | > 50.1 µM | 79.4 µM | > 50.1 µM | 1.58 µM | 0.126 µM | 0.251 µM | 1 µM | > 50.1 µM | > 50.1 µM | > 50.1 µM | > 50.1 µM | > 100 µM | 1.41 µM
Fc1ccc(O[C@H]2C[C@H](NCc3cccc4cn[nH]c34)C2)cc1C(F)(F)F | 7.94 µM | 0.126 µM | 12.6 µM | 0.2 µM | 7.94 µM | 10 µM | 0.158 µM | 7.94 µM | 7.94 µM | 20 µM | 10 µM | 25.1 µM | 0.794 µM
c1cc(-c2ncc(-c3ccn[nH]3)s2)ccn1 | > 50.1 µM | 0.0398 µM | > 50.1 µM | 0.251 µM | 20 µM | > 39.8 µM | 0.251 µM | 10 µM | > 50.1 µM | > 50.1 µM | > 50.1 µM | > 100 µM | 0.178 µM
CNc1c(C(N)=O)c(-c2ccc3scnc3c2)nn1CC(F)(F)F | > 50.1 µM | > 100 µM | 20 µM | 0.251 µM | 31.6 µM | > 39.8 µM | 0.158 µM | > 50.1 µM | > 50.1 µM | > 50.1 µM | > 50.1 µM | > 100 µM | 0.126 µM
CNc1cncc(C2CCCN2C(=O)Cc2coc3cc(C)ccc23)n1 (stereo not drawn) | > 50.1 µM | 0.0251 µM | > 50.1 µM | 0.2 µM | > 39.8 µM | > 39.8 µM | 0.2 µM | 0.794 µM | > 50.1 µM | 3.16 µM | > 50.1 µM | > 100 µM | 0.158 µM
CNc1cncc(C2CCCN2C(=O)Cc2ccc3ccccc3c2)n1 (stereo not drawn) | > 50.1 µM | 0.1 µM | > 50.1 µM | 0.158 µM | > 39.8 µM | > 39.8 µM | 0.158 µM | > 50.1 µM | > 50.1 µM | > 50.1 µM | > 50.1 µM | > 100 µM | 0.0794 µM
O=C(NCCc1n[nH]c(-c2ccc(F)c(F)c2)n1)C1CCCCC1 | > 50.1 µM | 25.1 µM | > 50.1 µM | 2.51 µM | 0.501 µM | 1 µM | 1.58 µM | 15.8 µM | > 50.1 µM | > 50.1 µM | 20 µM | > 100 µM | 2 µM
COc1ccc(CN2CCCCC2c2nc(-c3cccnc3)no2)cc1 (stereo not drawn) | > 50.1 µM | 0.2 µM | > 50.1 µM | 0.794 µM | > 39.8 µM | > 39.8 µM | 0.631 µM | > 50.1 µM | > 50.1 µM | > 50.1 µM | > 50.1 µM | > 100 µM | 0.794 µM
